Test results as given in US20240174690A1, “ANNULATED 2-AMINO-3-CYANO THIOPHENES AND DERIVATIVES FOR THE TREATMENT OF CANCER” (BOEHRINGER INGELHEIM INTERNATIONAL GMBH, priority 2021, published 2024).
In brackets after ≈: the same amount, converted by molar mass. Where two headings read alike, the source gives them in different places.

Legend:
[1] = Metabolic (microsomal) stability assay, human liver microsomes (HLM); format: in vitro ADME; settings: predicted clearance as percent of liver blood flow, 1 μM
Method: The metabolic degradation of the test compound is assayed at 37° C. with pooled liver microsomes (mouse (MLM), rat (RLM) or human (HLM)). The final incubation volume of 48 μL pertime point contains TRIS buffer (pH 7.5; 0.1 M), magnesium chloride (6.5 mM), microsomal protein (0.5 mg/mL for mouse/rat, 1 mg/mL for human specimens) and the test compound at a final concentration of 1 μM. Following a short preincubation period at 37° C., the reactions are initiated by addition of 12 μL beta-nicotinamide adenine dinucleotide phosphate, reduced form (NADPH, 10 mM) and terminated by transferring an aliquot into solvent after different time points (0, 5, 15, 30, 60 min). Additionally, the NADPH-independent degradation is monitored in incubations without NADPH, terminated at the last time point by addition of acetonitrile. The quenched incubations are pelleted by centrifugation (4,000 rpm, 15 min). An aliquot of the supernatant is assayed by LC-MS/MS to quantify the concentration of parent compound in the individual samples.
In vitro intrinsic clearance (CLint, in vitro) is calculated from the time course of the disappearance of the test drug during the microsomal incubation. Each plot is fitted to the first-order elimination rate constant as C(t)═C0*exp(−ke*t), where C(t) and C0 are the concentration of unchanged test drug at incubation time t and that at preincubation and ke is the disappearance rate constant of the unchanged drug. Subsequently, CLint in vitro (μL min^−1·amount protein) values are converted to predicted CLint,in vivo (mL min^−1 kg^−1) from incubation parameters according to the equation CLint, in vivo=CLint, in vitro×(incubation volume (ml)/amount protein (mg))×(amount protein (mg)/g liver tissue)×(liver weight/body wt.).
For better across species comparison the predicted clearance is expressed as percent of the liver blood flow [% QH] (mL min^−1·kg^−1) in the individual species. In general, high stability (corresponding to low % QH) of the compounds across species is desired.

[2] = Solubility measurement (DMSO solution method), McIlvaine buffer pH 4.5 or 6.8; format: physicochemical; settings: aqueous buffer, kinetic from dmso stock, DMSO stock diluted to 250 μM, 24 h shaking at ambient temperature
Method: The DMSO solution is diluted with an aqueous medium (Mcllvaine buffer with pH=4.5 or 6.8) to a final concentration of 250 μM. After 24 h of shaking at ambient temperature a potentially formed precipitate is removed by filtration. The concentration of the test compound in the filtrate is determined by LC-UV methods by calibrating the signal to the signal of a reference solution with complete dissolution of the test compound in acetonitrile/water (1:1) with known concentration.

[3] = test system: KRAS G12C-dependent Ba/F3 cells; assay: Ba/F3 proliferation assay, KRAS G12C; format: cell-based; settings: Mus musculus, BaF3, 72 h, AlamarBlue
Method: (§1) Plasmids containing KRASG12 mutants (i.e. […], G12C, G12V) are obtained from GeneScript. To generate KRASG12-dependent Ba/F3 models, Ba/F3 cells are transduced with retroviruses containing vectors that harbor KRASG12 isoforms. Platinum-E cells (Cell Biolabs) are used for retrovirus packaging. Retrovirus is added to Ba/F3 cells. To ensure infection, 4 μg/mL polybrene is added and cells are spinfected. […] Cells with an infection efficiency of 10% to 20% are further cultivated and puromycin selection with 1 μg/mL is initiated. As a control, parental Ba/F3 cells are used to show selection status. Selection is considered successful when parental Ba/F3 cells cultures died. To evaluate the transforming potential of KRASG12 mutations, the growth medium is no longer supplemented with IL-3. Ba/F3 cells harboring the empty vector are used as a control. Approximately ten days before conducting the experiments, puromycin is left out.
(§2) Compounds are added using an Access Labcyte Workstation with a Labcyte Echo 550 or 555 accoustic dispenser. All treatments are performed in technical duplicates. […] AlamarBlue™ (ThermoFisher), a viability stain, is added and fluorescence measured in the PerkinElmer Envision HTS Multilabel Reader. The raw data are imported into and analyzed with the Boehringer Ingelheim proprietary software MegaLab (curve fitting based on the program PRISM, GraphPad Inc.).

[4] = molecular target: KRAS (G12D)::SOS1 (Homo sapiens (Human), UniProt P01116, G12D); assay: KRAS::SOS1 AlphaScreen binding assay, KRAS G12D
Chain of KRAS (G12D)::SOS1 (P01116 other isoform, or with tags, fused parts or gaps G12D): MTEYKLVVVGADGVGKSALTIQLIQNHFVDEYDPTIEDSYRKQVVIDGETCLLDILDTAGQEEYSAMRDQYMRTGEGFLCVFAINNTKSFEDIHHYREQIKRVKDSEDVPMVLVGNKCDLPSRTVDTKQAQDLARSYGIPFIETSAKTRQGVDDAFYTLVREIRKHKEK
Description: (§3) This assay can be used to examine the potency with which compounds according to the invention binding to (mutated) KRAS inhibit the protein-protein interaction between SOS1 and (mutated) KRAS e.g., KRAS WT, KRAS G12C, KRAS G12D, KRAS G12V, KRAS G13D. […] Low IC50 values in this assay setting are indicative of strong inhibition of protein-protein interaction between SOS1 and KRAS:
(§4) These assays measure the inhibitory effect of compounds on KRAS mutant protein-protein interactions using the Alpha Screen technology by Perkin Elmer.
(§5) The following (mutant) enzyme forms of KRAS and interacting proteins are used in these assays at the given concentrations: • KRAS (G12D) 1-169, N-terminal 6His-tag, C-terminal avi-tag (Xtal BioStructures, Inc.); final assay concentration 10 nM and SOS1 564-1049, N-terminal 229 GST-tag, TEV cleavage site (Viva Biotech Ltd); final assay concentration 5 nM; • KRAS (G12C) 1-169, N-terminal 6His-tag for purification, cleaved off, C-terminal avi-tag, biotinylated, mutations: C51S, C80L, C118S (in house); final assay concentration 7.5 nM and SOS1 564-1049, N-terminal 229 GST-tag, TEV cleavage site (Viva Biotech Ltd); final assay concentration 5 nM; • KRAS (G12V) 1-169, N-terminal 6His-tag for purification, cleaved off, C-terminal avi-tag, biotinylated, TEV cleavage site, mutation: C118S, GDP loaded (in house); final assay concentration 10 nM and SOS1 564-1049, N-terminal 229 GST-tag, TEV cleavage site (Viva Biotech Ltd); final assay concentration 10 nM; • KRAS (G13D) 1-169, N-terminal 6His-tag for purification, cleaved off, C-terminal avi-tag, biotinylated, TEV cleavage site, mutation: C118S, GDP loaded (in house); final assay concentration 10 nM and SOS1 564-1049, N-terminal 229 GST-tag, TEV cleavage site (Viva Biotech Ltd); final assay concentration 10 nM; • KRAS (WT) 1-169, N-terminal 6His-tag for purification, cleaved off, C-terminal avi-tag, biotinylated, TEV cleavage site, mutation: C118S, GDP loaded (in house); final assay concentration 10 nM and SOS1 564-1049, N-terminal 229 GST-tag, TEV cleavage site (Viva Biotech Ltd); final assay concentration 10 nM.
(§6) Test compounds dissolved in DMSO are dispensed onto assay plates (Proxiplate 384 PLUS, white, PerkinElmer; 6008289) using an Access Labcyte Workstation with the Labcyte Echo 55×. For the chosen highest assay concentration of 100 μM, 150 nL of compound solution are transferred from a 10 mM DMSO compound stock solution. A series of eleven fivefold dilutions per compound are transferred to the assay plate, compound dilutions are tested in duplicates. DMSO are added as backfill to a total volume of 150 nL.
(§7) The assays run on a fully automated robotic system in a darkened room below 100 Lux. To 150 nl of compound dilution 10 μl of a mix including KRAS mutant protein, SOS1 (final assay concentrations see above) and GDP nucleotide (Sigma G7127; final assay concentration 10 μM) in assay buffer (1×PBS, 0.1% BSA, 0.05% Tween 20) are added into columns 1-24.
(§8) After 30 minutes incubation time 5 μl of Alpha Screen bead mix in assay buffer are added into columns 1-23. Bead mix consists of AlphaLISA Glutathione Acceptor Beads (PerkinElmer, Cat No AL109) and AlphaScreen Streptavidin Donor Beads (PerkinElmer Cat No 6760002) in assay buffer at a final assay concentration of 10 μg/ml each.
(§9) Plates are kept at room temperature in a darkened incubator. After an additional 60 minutes incubation time the signal is measured in a PerkinElmer Envision HTS Multilabel Reader using the AlphaScreen specs from PerkinElmer.
(§10) Each plate contains up to 16 wells of a negative control depending on the dilution procedure (platewise or serial) (DMSO instead of test compound; with KRAS mutant::SOS1 GDP mix and bead mix; column 23) and 16 wells of a positive control (DMSO instead of test compound; with KRAS mutant::SOS1 GDP mix w/o bead mix; column 24).
(§11) As internal control known inhibitors of KRAS mutant::SOS1 interaction can be measured on each compound plate. […]

[5] = molecular target: KRAS (G12C)::SOS1 (Homo sapiens (Human), UniProt P01116, C118S/C51S/C80L/G12C); assay: KRAS::SOS1 AlphaScreen binding assay, KRAS G12C
Chain of KRAS (G12C)::SOS1 (P01116 other isoform, or with tags, fused parts or gaps G12C/C51S/C80L/C118S): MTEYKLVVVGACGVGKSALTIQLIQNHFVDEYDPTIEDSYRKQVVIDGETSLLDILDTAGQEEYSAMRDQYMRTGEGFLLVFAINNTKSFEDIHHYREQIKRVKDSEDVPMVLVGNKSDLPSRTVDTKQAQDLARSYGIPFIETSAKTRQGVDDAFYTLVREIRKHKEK
Description: as §3, §4, §5, §6, §7, §8, §9, §10, §11

[6] = Plasma protein binding assay (PPB), equilibrium dialysis, 10% FCS in PBS; format: in vitro ADME; settings: bovine, read-out: PPB 10% FCS (% fu)
Method: Binding of test compounds to plasma was determined using equilibrium dialysis (ED) and quantitative mass spectrometry interfaced with liquid chromatography (LC-MS). In brief, ED was performed with dialysis devices consisting of two chambers separated by a semipermeable membrane with a molecular weight cut-off of 5-10 kg/mol. One chamber was filled with 10% FCS in PBS containing 1-10 μmol/L test compound and the other chamber was filled with phosphate-buffer saline (PBS) with or without dextran. The dialysis chamber was incubated for 3-5 hours at 37° C. After incubation, protein was precipitated from aliquots of each chamber and the concentration of test compound in the supernatant of the plasma-containing compartment (Cserum) and of the buffer-containing compartment (Cbuffer) was determined by LC-MS. The fraction of unbound test compound (not bound to plasma) (fu) was calculated according to the following equation: […]

[7] = test system: KRAS G12V-dependent Ba/F3 cells; assay: Ba/F3 proliferation assay, KRAS G12V; format: cell-based; settings: Mus musculus, BaF3, 72 h, AlamarBlue;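 note: proliferation IC50 in KRAS G12V-dependent Ba/F3 cells read by AlamarBlue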
Method: as §1, §2

[8] = test system: KRAS G12D-dependent Ba/F3 cells; assay: Ba/F3 proliferation assay, KRAS G12D; format: cell-based; settings: Mus musculus, BaF3, 72 h, AlamarBlue
Method: as §1, §2

[9] = test system: NCI-H358 cells; assay: NCI-H358 CTG proliferation assay (120 h) (NSCLC, G12C); format: cell-based, human; settings: Homo sapiens, assay 2, CTG, read-out: H358 (assay 2) IC50
Method: NCI-H358 CTG Proliferation Assay (120 h) (NSCLC, G12C)
NCI-H358 cells (ATCC No. CRL-5807) are dispensed into white bottom opaque 96 well plates (Perkin Elmer cat no. 5680) at a density of 2000 cells per well in 100 μL RPMI-1640 ATCC-Formulation (Gibco #A10491)+10% FCS (fetal calf serum) (assay 1) or into black 384-well plates, flat and clear bottom (Greiner, PNr. 781091) at a density of 200 cells per well in 60 μl RPMI-1640 ATCC-Formulation (Gibco #A10491)+10% FCS (fetal calf serum) (assay 2). […] Compounds (10 mM stock in DMSO) are added at logarithmic dose series using the HP Digital Dispenser D300 (Tecan) (assay 1) or the ECHO acoustic liquid handler system (Beckman Coulter) (assay 2), normalizing for added DMSO and including DMSO controls. For the TO time point measurement, untreated cells are analyzed at the time of compound addition. Plates are incubated for 120 h, and cell viability is measured using CellTiter-Glo luminescent cell viability reagent (Promega product code G7570). Viability (stated as percent of control) is defined as relative luminescence units RLU of each well divided by the RLU of cells in DMSO controls. IC50 values are determined from viability measurements by non-linear regression using a four parameter model.

SMILES: Cc1cc(-c2onc3c2CCC[C@@]32CCCc3sc(N)c(C#N)c32)nc(N2CCCNC[C@@H]2C)n1 [I-35]
- HLM QH [1]: 32%
- solubility at 24 h ([2]; McIlvaine buffer pH 4.5, read-out: solubility pH 4.5): 3 µg/mL (≈ 6.13 µM)
- solubility at 24 h ([2]; McIlvaine buffer pH 6.8, read-out: solubility pH 6.8): < 1 µg/mL
- IC50 [3]: 289 nM
- IC50 [4]: 21 nM
- IC50 [5]: 32 nM

SMILES: C[C@H](Oc1cc(N2CCN3CCC[C@]3(C)C2)nc(-c2noc3c2CCC[C@@]32CCCc3sc(N)c(C#N)c32)n1)[C@@H]1CCCN1C [II-52]
- fraction unbound [6]: 0.48
- HLM QH [1]: <24%
- IC50 [7]: 401 nM
- IC50 [3]: 403 nM
- IC50 [8]: 72 nM
- IC50 [9]: 1720 nM

SMILES: C[C@H](Oc1cc(-n2ccnn2)nc(-c2noc3c2CCC[C@@]32CCCc3sc(N)c(C#N)c32)n1)[C@@H]1CCCN1C [II-108]
- fraction unbound [6]: 0.42
- HLM QH [1]: 59%
- IC50 [7]: 8 nM
- IC50 [3]: 15 nM
- IC50 [8]: 54 nM
- IC50 [9]: 134 nM

SMILES: C[C@H]1CN(C)CCCN1c1nc(-c2noc3c2CCC[C@@]32CCCc3sc(N)c(C#N)c32)cc(N2CCN(C)C3(CC3)C2)n1 [II-172]
- HLM QH [1]: 51%
- IC50 [3]: 830 nM
- IC50 [4]: 36 nM
- IC50 [5]: 888 nM
